# Measurements reported in article PMC11594133, “Enzyme (α-Glucosidase, α-Amylase, PTP1B & VEGFR-2) Inhibition and Cytotoxicity of Fluorinated Benzenesulfonic Ester Derivatives of the 5-Substituted 2-Hydroxy-3-nitroacetophenones” (International Journal of Molecular Sciences, 2024).
# Tests used:
# [1] = system: MCF-7 cell line; assay: CellTiter-Blue cell viability assay, MCF-7; conditions: Homo sapiens, MCF7, 24 h, read-out: IC50 (µM ± SD) MCF-7
# Experimental: (§1) The cytotoxic activity of these compounds was evaluated in vitro (triplicate run) on the MCF-7, A549 and Vero cell lines using the CellTiter-Blue Cell viability assay (Promega, Madison, WI, USA) assay referring to the reported instructions as described in our previous study [70]. The cells were maintained in culture flasks in the presence of Dulbecco’s Modified Eagle’s Medium (DMEM; Gibco, Carlsbad, CA, USA) supplemented with 10% fetal bovine serum (FBS) and 1% penicillin/streptomycin and then incubated at 37 °C in 5% CO2. The cells were detached using 2% trypsin upon reaching 85% confluency and counted with a hand-held automated cell counter (Scapter 3.0™, Merck, Burlington, MA, USA). The cells were then seeded at 1 × 10^5 cells/well and the well-plates were incubated overnight to allow cell attachment. […] The mixtures were incubated for another 24 h and then 20 µL of the CellTiter-Blue solution was added to each well. Fluorescence was measured using an Elisa microplate reader (ThermoFisher Scientific, Vario SkanFlash, Vantaa, Finland) at 560 nm excitation/590 nm emission.
# [2] = system: Vero cell line; assay: CellTiter-Blue cell viability assay, Vero; conditions: Chlorocebus sabaeus, 24 h, read-out: IC50 (µM ± SD) Vero
# Experimental: as §1
# [3] = system: A549 cell line; assay: CellTiter-Blue cell viability assay, A549; conditions: Homo sapiens, A549, 24 h, read-out: IC50 (µM ± SD) A549
# Experimental: as §1
# [4] = target: α-glucosidase from Saccharomyces cerevisiae (Saccharomyces cerevisiae, UniProt P53341); assay: biochemical
# Experimental: A mixture of α-glucosidase (17 µL) from Saccharomyces cerevisiae (0.48 u/mL α-glucosidase), phosphate buffer (100 mM, pH 6.8; 50 µL) and test sample in DMSO was incubated at 37 °C for 10 min. After 10 min., a solution of 2 mM p-nitrophenyl-α-D-glucopyranoside (PNP-G, 17 µL) was added to each well to initiate the reaction. The plate was incubated for 30 min at 37 °C. Five absorbance readings were recorded for each triplicate run at a wavelength of 405 nm using Varioskan flash microplate spectrophotometer (Thermo Scientific, Waltham, MA, USA). The average values obtained from the readings were used to determine the IC50 and standard deviation values. The values were calculated by nonlinear regression analysis and expressed as the mean SD of three distinct experiments using Graph Pad Prism software.
# [5] = target: Human VEGFR-2 (KDR) (Homo sapiens, UniProt P35968); assay: Human VEGFR-2 (KDR) kinase assay kit (Kinase-Glo MAX)
# Experimental: The VEGFR-2 enzyme (1 ng/μL) was added to the wells and the mixtures were incubated at 30 °C. After 45 min of incubation, kinase detection reagent (50 μL, Kinase-Glo MAX, Promega) was added to each well. The mixtures were incubated for 15 min at room temperature in the dark. A luminescence reading was detected and quantified by a microplate reader (Varioskan Flash, ThermoFisher Scientific, Vantaa, Finland). The IC50 values were determined by the nonlinear regression analysis using GraphPad Prism software version 8.0 (GraphPad Software, Inc., San Diego, CA, USA).
# [6] = target: T1, PTP1B (Homo sapiens, UniProt P18031); assay: In vitro PTP1B inhibitory assay (Fluorogenic PTP1B (Catalytic Domain) Assay)
# T1 sequence (P18031 3-277 limits assumed): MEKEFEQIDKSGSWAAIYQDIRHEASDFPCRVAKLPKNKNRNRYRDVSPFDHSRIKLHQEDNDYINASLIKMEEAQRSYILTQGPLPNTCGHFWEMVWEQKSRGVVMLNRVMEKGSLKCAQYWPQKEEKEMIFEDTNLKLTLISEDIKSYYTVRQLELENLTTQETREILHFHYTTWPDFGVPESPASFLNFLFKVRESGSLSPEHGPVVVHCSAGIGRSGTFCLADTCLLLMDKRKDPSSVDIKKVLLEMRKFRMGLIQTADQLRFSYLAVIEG
# [7] = target: T2, α-amylase (Homo sapiens, UniProt P04746); assay: In vitro α-amylase inhibitory assay (α-Amylase Inhibitor Screening Kit)
# T2 sequence (P04746 16-511): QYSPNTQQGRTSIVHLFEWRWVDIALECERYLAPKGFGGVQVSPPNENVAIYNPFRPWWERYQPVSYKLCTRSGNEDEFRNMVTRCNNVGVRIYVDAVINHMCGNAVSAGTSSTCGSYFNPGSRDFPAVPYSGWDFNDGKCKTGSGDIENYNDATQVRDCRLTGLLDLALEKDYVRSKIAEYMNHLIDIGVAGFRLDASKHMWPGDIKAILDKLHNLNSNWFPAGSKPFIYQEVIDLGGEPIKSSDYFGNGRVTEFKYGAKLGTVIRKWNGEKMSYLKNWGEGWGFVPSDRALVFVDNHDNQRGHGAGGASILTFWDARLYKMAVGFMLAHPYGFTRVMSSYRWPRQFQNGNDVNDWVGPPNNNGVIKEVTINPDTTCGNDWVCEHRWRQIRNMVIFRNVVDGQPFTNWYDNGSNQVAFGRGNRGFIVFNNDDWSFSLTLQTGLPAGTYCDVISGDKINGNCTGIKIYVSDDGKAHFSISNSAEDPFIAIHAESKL
# Experimental: The α-amylase assay was performed in triplicate using a 96-well plate using the α-Amylase Inhibitor Screening Kit (Catalog No. K482; Abcam, Cambridge, UK). […] A solution of α-amylase enzyme (50 μL) prepared by adding 490 μL of assay buffer to 10 μL of α-amylase enzyme was added to each of the wells containing the reaction mixture to initiate the reaction. The plate was incubated for 10 min. at room temperature in the dark. Five different absorbance readings were recorded for each triplicate run at a wavelength of 405 nm using Varioskan flash microplate spectrophotometer (Thermo Scientific, Waltham, MA, USA). The IC50 and SD values were calculated using the Graph Pad Prism software.
# [8] = system: α-glucosidase; design: method as in PMID 32876951; conditions: cited from earlier work
# Sequence of Human VEGFR-2 (KDR) (P35968 20-1356): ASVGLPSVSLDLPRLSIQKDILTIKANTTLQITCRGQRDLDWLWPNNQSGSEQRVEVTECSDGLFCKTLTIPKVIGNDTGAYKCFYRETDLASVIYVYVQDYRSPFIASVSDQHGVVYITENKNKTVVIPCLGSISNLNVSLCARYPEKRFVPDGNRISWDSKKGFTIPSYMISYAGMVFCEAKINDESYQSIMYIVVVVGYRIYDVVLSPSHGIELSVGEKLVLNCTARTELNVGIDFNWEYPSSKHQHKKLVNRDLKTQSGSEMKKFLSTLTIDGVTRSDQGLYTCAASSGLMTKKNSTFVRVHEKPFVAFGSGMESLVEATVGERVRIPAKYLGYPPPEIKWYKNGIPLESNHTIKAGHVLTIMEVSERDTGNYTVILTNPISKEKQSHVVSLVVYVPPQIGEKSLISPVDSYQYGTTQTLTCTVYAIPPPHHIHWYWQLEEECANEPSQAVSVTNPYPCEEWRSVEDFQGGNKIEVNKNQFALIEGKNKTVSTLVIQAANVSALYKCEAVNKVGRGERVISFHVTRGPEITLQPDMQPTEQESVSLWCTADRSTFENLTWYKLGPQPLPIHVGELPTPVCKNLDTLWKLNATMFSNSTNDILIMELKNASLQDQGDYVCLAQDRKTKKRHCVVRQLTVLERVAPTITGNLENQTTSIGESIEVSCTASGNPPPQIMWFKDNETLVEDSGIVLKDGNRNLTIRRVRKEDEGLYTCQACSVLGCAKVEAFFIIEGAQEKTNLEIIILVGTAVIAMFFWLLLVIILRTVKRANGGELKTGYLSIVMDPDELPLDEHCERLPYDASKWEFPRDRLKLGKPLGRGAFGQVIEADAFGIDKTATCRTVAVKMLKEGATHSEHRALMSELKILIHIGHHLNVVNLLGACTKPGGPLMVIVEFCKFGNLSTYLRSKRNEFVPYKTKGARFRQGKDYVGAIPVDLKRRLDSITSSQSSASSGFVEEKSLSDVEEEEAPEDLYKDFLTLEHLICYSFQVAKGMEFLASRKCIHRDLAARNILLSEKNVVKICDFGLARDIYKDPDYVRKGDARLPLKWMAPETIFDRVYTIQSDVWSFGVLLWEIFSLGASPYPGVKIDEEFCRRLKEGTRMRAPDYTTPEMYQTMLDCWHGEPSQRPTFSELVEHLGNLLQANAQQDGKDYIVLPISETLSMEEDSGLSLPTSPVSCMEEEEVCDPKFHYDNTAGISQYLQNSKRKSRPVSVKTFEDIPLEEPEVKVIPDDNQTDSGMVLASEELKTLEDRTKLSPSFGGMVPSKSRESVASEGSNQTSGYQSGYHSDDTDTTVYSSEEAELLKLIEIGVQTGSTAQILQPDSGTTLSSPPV
# Sequence of α-glucosidase from Saccharomyces cerevisiae (P53341 whole entry): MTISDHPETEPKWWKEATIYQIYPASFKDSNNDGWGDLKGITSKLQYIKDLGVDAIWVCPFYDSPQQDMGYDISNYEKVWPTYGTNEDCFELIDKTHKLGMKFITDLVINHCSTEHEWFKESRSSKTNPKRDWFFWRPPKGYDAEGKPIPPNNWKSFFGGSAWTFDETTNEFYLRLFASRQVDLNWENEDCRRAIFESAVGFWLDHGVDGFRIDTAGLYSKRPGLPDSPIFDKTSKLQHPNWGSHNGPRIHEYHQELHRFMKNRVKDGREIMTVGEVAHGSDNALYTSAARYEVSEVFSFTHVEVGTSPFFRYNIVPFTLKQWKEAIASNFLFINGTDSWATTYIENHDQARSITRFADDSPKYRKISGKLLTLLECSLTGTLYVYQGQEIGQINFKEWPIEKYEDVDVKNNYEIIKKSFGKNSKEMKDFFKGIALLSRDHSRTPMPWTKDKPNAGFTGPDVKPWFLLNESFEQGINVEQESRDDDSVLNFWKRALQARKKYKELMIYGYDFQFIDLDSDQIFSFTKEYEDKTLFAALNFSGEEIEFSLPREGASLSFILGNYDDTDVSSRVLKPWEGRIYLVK
Compound,IC50 [1] [µM],IC50 [3] [µM],IC50 [4] [µM],IC50 [2] [µM],other results
"COC(=O)c1ccc2c(c1)NC(=O)/C2=C(\Nc1ccc(N(C)C(=O)CN2CCN(C)CC2)cc1)c1ccccc1 [Nintedanib, reference compound]",0.4 ± 0.03,0.78 ± 0.04,–,0.24 ± 0.02,–
"CC(=O)c1cc(Cl)cc([N+](=O)[O-])c1OS(=O)(=O)c1ccc(C(F)(F)F)cc1 [Compound 2j, 2-Acetyl-4-chloro-6-nitrophenyl 4-(trifluoromethyl)benzenesulfonate]",2.58 ± 0.02,2.52 ± 0.02,5.4 ± 0.03,38.86 ± 0.16,IC50 [5]: 20.8 ± 0.35 µM; IC50 [6]: 19.6 ± 0.042 µM; IC50 [7]: 7.3 ± 0.008 µM
"CC(=O)c1cc(C)cc([N+](=O)[O-])c1OS(=O)(=O)c1ccc(OC(F)(F)F)cc1 [Compound 2w, 2-Acetyl-4-methyl-6-nitrophenyl 4-(trifluoromethoxy)benzenesulfonate]",–,–,6 ± 0.034,–,IC50 [7]: 16.7 ± 0.035 µM
CC(=O)c1cc(Br)cc([N+](=O)[O-])c1O [Compound 1c],–,–,11.9 ± 0.01,–,–
"COc1ccc(S(=O)(=O)Oc2c(C(C)=O)cc(C)cc2[N+](=O)[O-])cc1 [Compound 2x, 2-Acetyl-4-methyl-6-nitrophenyl 4-methoxybenzenesulfonate]",11.01 ± 0.07,1.01 ± 0.01,3.6 ± 0.029,56.77 ± 0.18,IC50 [5]: 24.2 ± 0.22 µM; IC50 [6]: 21.5 ± 0.066 µM; IC50 [7]: 11.9 ± 0.022 µM
"CC(=O)c1cc(F)cc([N+](=O)[O-])c1OS(=O)(=O)c1ccc(OC(F)(F)F)cc1 [Compound 2e, 2-Acetyl-4-fluoro-6-nitrophenyl 4-(trifluoromethoxy)benzenesulfonate]",8.18 ± 0.03,7.42 ± 0.09,3.1 ± 0.043,20.78 ± 0.14,IC50 [5]: 28.5 ± 0.23 µM; IC50 [6]: 23.1 ± 0.006 µM; IC50 [7]: 15.2 ± 0.019 µM
CC(=O)c1cc(F)cc([N+](=O)[O-])c1O [Compound 1a],–,–,16.9 ± 0.064,–,–
"COc1ccc(S(=O)(=O)Oc2c(C(C)=O)cc(Cl)cc2[N+](=O)[O-])cc1 [Compound 2l, 2-Acetyl-4-chloro-6-nitrophenyl 4-methoxybenzenesulfonate]",–,–,8.5 ± 0.043,–,–
"CC(=O)c1cc(C)cc([N+](=O)[O-])c1OS(=O)(=O)c1ccc(F)cc1 [Compound 2u, 2-Acetyl-4-methyl-6-nitrophenyl 4-fluorobenzenesulfonate]",–,–,11.2 ± 0.045,–,–
"CC(=O)c1cc(Br)cc([N+](=O)[O-])c1OS(=O)(=O)c1ccc(C(F)(F)F)cc1 [Compound 2p, 2-Acetyl-4-bromo-6-nitrophenyl 4-(trifluoromethyl)benzenesulfonate]",–,–,8 ± 0.06,–,–
"CC(=O)c1cc(Cl)cc([N+](=O)[O-])c1OS(=O)(=O)c1ccc(F)cc1 [Compound 2i, 2-Acetyl-4-chloro-6-nitrophenyl 4-fluorobenzenesulfonate]",–,–,10.6 ± 0.039,–,–
"CC(=O)c1cc(Br)cc([N+](=O)[O-])c1OS(=O)(=O)c1ccccc1F [Compound 2m, 2-Acetyl-4-bromo-6-nitrophenyl 2-fluorobenzenesulfonate]",–,–,7.9 ± 0.044,–,–
"CC(=O)c1cc(Br)cc([N+](=O)[O-])c1OS(=O)(=O)c1cccc(F)c1 [Compound 2n, 2-Acetyl-4-bromo-6-nitrophenyl 3-fluorobenzenesulfonate]",–,–,18.2 ± 0.041,–,–
"CC(=O)c1cc(Br)cc([N+](=O)[O-])c1OS(=O)(=O)c1ccc(OC(F)(F)F)cc1 [Compound 2q, 2-Acetyl-4-bromo-6-nitrophenyl 4-(trifluoromethoxy)benzenesulfonate]",–,–,8.7 ± 0.075,–,–
"COc1ccc(S(=O)(=O)Oc2c(C(C)=O)cc(Br)cc2[N+](=O)[O-])cc1 [Compound 2r, 2-Acetyl-4-bromo-6-nitrophenyl 4-methoxybenzenesulfonate]",–,–,13.2 ± 0.043,–,–
"CC(=O)c1cc(F)cc([N+](=O)[O-])c1OS(=O)(=O)c1ccc(C(F)(F)F)cc1 [Compound 2d, 2-Acetyl-4-fluoro-6-nitrophenyl 4-(trifluoromethyl)benzenesulfonate]",–,–,6.4 ± 0.012,–,–
CC(=O)c1cc(C)cc([N+](=O)[O-])c1O [Compound 1d],–,–,8.2 ± 0.015,–,inhibition of α-glucosidase activity (reported) [8]: low nanomolar concentrations
CC(=O)c1cc(Cl)cc([N+](=O)[O-])c1O [Compound 1b],–,–,27.2 ± 0.195,–,–
"CC(=O)c1cc(Cl)cc([N+](=O)[O-])c1OS(=O)(=O)c1cccc(F)c1 [Compound 2h, 2-Acetyl-4-chloro-6-nitrophenyl 3-fluorobenzenesulfonate]",–,–,12.4 ± 0.041,–,–

# Continued, in another order:
IC50 [1] [µM],IC50 [3] [µM],IC50 [4] [µM],Compound,IC50 [2] [µM],other results
–,–,27.4 ± 0.044,"CC(=O)c1cc(F)cc([N+](=O)[O-])c1OS(=O)(=O)c1ccc(F)cc1 [Compound 2c, 2-Acetyl-4-fluoro-6-nitrophenyl 4-fluorobenzenesulfonate]",–,–
–,–,13.1 ± 0.045,"CC(=O)c1cc(C)cc([N+](=O)[O-])c1OS(=O)(=O)c1cccc(F)c1 [Compound 2t, 2-Acetyl-4-methyl-6-nitrophenyl 3-fluorobenzenesulfonate]",–,–
8.58 ± 0.07,5.5 ± 0.01,3 ± 0.014,"CC(=O)c1cc(C)cc([N+](=O)[O-])c1OS(=O)(=O)c1ccc(C(F)(F)F)cc1 [Compound 2v, 2-Acetyl-4-methyl-6-nitrophenyl 4-(trifluoromethyl)benzenesulfonate]",48.02 ± 0.18,IC50 [5]: 16.3 ± 0.29 µM; IC50 [6]: 7.6 ± 0.07 µM; IC50 [7]: 6 ± 0.02 µM
–,–,18.1 ± 0.048,"CC(=O)c1cc(C)cc([N+](=O)[O-])c1OS(=O)(=O)c1ccccc1F [Compound 2s, 2-Acetyl-4-methyl-6-nitrophenyl 2-fluorobenzenesulfonate]",–,–
9.92 ± 0.09,6.15 ± 0.06,4.2 ± 0.054,"CC(=O)c1cc(Cl)cc([N+](=O)[O-])c1OS(=O)(=O)c1ccccc1F [Compound 2g, 2-Acetyl-4-chloro-6-nitrophenyl 2-fluorobenzenesulfonate]",33.93 ± 0.15,IC50 [5]: 34.4 ± 0.26 µM; IC50 [6]: 16.9 ± 0.016 µM; IC50 [7]: 7 ± 0.04 µM
4.96 ± 0.05,7.75 ± 0.11,5.6 ± 0.038,"CC(=O)c1cc(F)cc([N+](=O)[O-])c1OS(=O)(=O)c1ccccc1F [Compound 2a, 2-Acetyl-4-fluoro-6-nitrophenyl 2-fluorobenzenesulfonate]",39.21 ± 0.13,IC50 [5]: 28.7 ± 0.27 µM
–,–,8.6 ± 0.025,"CC(=O)c1cc(F)cc([N+](=O)[O-])c1OS(=O)(=O)c1cccc(F)c1 [Compound 2b, 2-Acetyl-4-fluoro-6-nitrophenyl 3-fluorobenzenesulfonate]",–,–
0.59 ± 0.03,0.71 ± 0.09,–,"COc1cccc2c1C(=O)c1c(O)c3c(c(O)c1C2=O)C[C@@](O)(C(=O)CO)C[C@@H]3O[C@H]1C[C@H](N)[C@H](O)[C@H](C)O1 [Doxorubicin, reference compound]",0.94 ± 0.04,–
–,–,20.5 ± 0.058,"CC(=O)c1cc(Br)cc([N+](=O)[O-])c1OS(=O)(=O)c1ccc(F)cc1 [Compound 2o, 2-Acetyl-4-bromo-6-nitrophenyl 4-fluorobenzenesulfonate]",–,–
34.53 ± 0.12,1.89 ± 0.05,3.9 ± 0.031,"CC(=O)c1cc(Cl)cc([N+](=O)[O-])c1OS(=O)(=O)c1ccc(OC(F)(F)F)cc1 [Compound 2k, 2-Acetyl-4-chloro-6-nitrophenyl 4-(trifluoromethoxy)benzenesulfonate]",33.39 ± 0.13,IC50 [5]: 26.4 ± 0.2 µM; IC50 [6]: 20.1 ± 0.065 µM; IC50 [7]: 9.8 ± 0.021 µM
